Counter-ions that a name gives are not always drawn.
Assays:
[1] = target: human recombinant FKBP-12 (Homo sapiens, UniProt P62942); test: coupled colorimetric PPIase (rotamase) assay, FKBP-12; type: biochemical; conditions: succinyl-AFPF-pNA substrate, chymotrypsin-coupled, 10° C., pH 8.0; read-out: IC50 for inhibition of the FKBP-12 enzyme
Source text: The affinity of the compounds of the formula (I) for FKBP-12 can be determined in vitro in a coupled calorimetric PPlase assay using similar procedures to published methods (e.g. see Kofron, J. L., et al., Biochemistry, 1991,30, 6127-6134, Zarnt, T., et al., Biochem. J. 1995, 305, 159-164, Holt, D. A., et al., J. Am. Chem. Soc., 1993, 115, 9925-9938). In these methods, the cis-trans isomerisation of a hydrophobic amino acid-proline bond in a tetrapeptide substrate (e.g. the phenylalanine-proline bond in N-succinyl-ala-phe-pro-phe-p-nitroanilide [succinyl-AFPF-pNA]) can be determined by monitoring cleavage of pNA from the transPro-containing peptide by an excess of chymotrypsin.
The IC50 (the concentration of the compound of the formula (I) producing 50% inhibition) values were determined using the following assay methodology. Assay buffer (2.175 ml) (50 mM 4-(2-hydroxyethyl)-1-piperazineethanesulphonic acid (HEPES), 100 mM NaCl, 1 mM dithiothreitol (DTT), pH 8.0) is equilibrated to 10° C. in a cuvette. 12.5 μl of a solution of the present compound in DMSO, 250 μl of a 60 mg/ml solution of α-chymotrypsin in 1 mM aqueous hydrochloric acid and then 50 μl of a solution of human recombinant FKBP-12 (4.5 μM) in assay buffer are added and mixed. The reaction is initiated by addition of 12.5 μl of a solution of 20 mM succinyl-AFPF-pNA in DMSO. The absorbance at 390 nm is monitored for one minute collecting data every 0.25 second. Data are fitted with a first order rate equation with offset and the rate constant obtained corrected for the rate of uncatalysed isomerisation of the substrate. The rate constant determined at different inhibitor concentrations (10 nM to 100 μM) is expressed as % inhibition of the control rate constant. The IC50 is estimated using a non-linear least squares curve fitting routine of the sigmoidal dose response data.

[2] = target: T1, human recombinant FKBP52 (Homo sapiens, UniProt Q02790); test: PPIase (rotamase) assay, FKBP-52; type: biochemical; conditions: read-out: IC50 for inhibition of the FKBP-52 enzyme
T1 sequence (Q02790 1-459): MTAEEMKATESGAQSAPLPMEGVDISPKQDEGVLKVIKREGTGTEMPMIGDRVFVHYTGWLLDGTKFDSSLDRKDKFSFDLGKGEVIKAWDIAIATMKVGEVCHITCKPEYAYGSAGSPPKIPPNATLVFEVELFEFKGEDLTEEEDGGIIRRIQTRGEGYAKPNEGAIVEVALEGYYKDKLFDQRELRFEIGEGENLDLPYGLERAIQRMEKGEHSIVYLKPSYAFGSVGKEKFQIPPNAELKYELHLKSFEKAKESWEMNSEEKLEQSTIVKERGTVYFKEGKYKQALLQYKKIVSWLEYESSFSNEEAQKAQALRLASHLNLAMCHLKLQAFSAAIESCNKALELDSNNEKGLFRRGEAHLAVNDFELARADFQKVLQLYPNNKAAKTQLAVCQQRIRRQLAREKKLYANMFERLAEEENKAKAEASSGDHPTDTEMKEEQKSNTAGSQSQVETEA
Protocol: Assay buffer (2.175 ml) (50 mM HEPES, 100 mM NaCl, 1 mM DTT, pH 8.0) is equilibrated to 10° C. in a cuvette. 12.5 μl of a solution of the present compound in DMSO, 250 μl of a 60 mg/ml solution of α-chymotrypsin in 1 mM aqueous hydrochloric acid and then 50 μL of a solution of human recombinant FKBP-12 (1.5 μM) in assay buffer are added and mixed. The reaction is initiated by adding 1 2.5 μl of a solution of anhydrous succinyl-ALPF-pNA (100 μM final concentration) in a 400 mM solution of LiCl in trifluoroethanol. The absorbance at 390 nm is monitored for 3 minutes collecting data every 0.5 second. Data are fitted with a first order rate equation with offset and the initial velocity (v) is calculated from the concentration of cis (re leu-pro bond)-succinyl-ALPF-pNA at to and the first order rate constant at different inhibitor concentrations (I). Data in the form vinh/vcontrol v. [I] are fitted with an equation for reversible tight binding inhibition to generate values for Ki,app (see Morrison, J. F., et al, Comments Mol. Cell Biophys., 1985, 2, 347-368). This analysis is used when the Ki,app approaches the concentration of FKBP-12 in the assay (30 nM). […] The same methodology is used to generate Ki,app for FKBP52 with the following modifications: Forty microlitres human recombinant FKBP52 (5.2 μM) is substituted for FKBP12 and 2.185 ml assay buffer are used in the assay. […]

Chain of human recombinant FKBP-12 (P62942 whole entry): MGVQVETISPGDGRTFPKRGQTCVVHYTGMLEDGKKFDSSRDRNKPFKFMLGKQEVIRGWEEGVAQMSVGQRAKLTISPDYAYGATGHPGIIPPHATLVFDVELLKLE

Row | IC50 [1] [µM] | IC50 [2] [µM] | SMILES
1 | < 1.2 | – | CC(c1ccnc2ccccc12)N1CC[C@H](NC(=O)[C@@H]2CCCCN2c2nc3ccccc3o2)C1 (stereo partly shown) [Example 20]
2 | < 1.2 | – | COc1cc(C(=O)N2CC[C@H](NC(=O)[C@@H]3CCCCN3c3nc4ccccc4o3)C2)nc2ccccc12 [Example 23, (2S)-N^2-{(3S)-1-[4-Methoxyquinolin-2-ylcarbonyl]pyrrolidin-3-yl}-1-(1,3-benzoxazol-2-yl)-2-piperidinecarboxamide]
3 | < 1.2 | – | O=C(N[C@H]1CCN(C(=O)c2ccc3ccccc3n2)C1)[C@@H]1CCCCN1c1nc2ccccc2o1 [Example 21, (2S)-N^2-{(3S)-1-[Quinolin-2-ylcarbonyl]pyrrolidin-3-yl}-1-(1,3-benzoxazol-2-yl)-2-piperidinecarboxamide]
4 | < 1.2 | – | O=C(N[C@H]1CCN(Cc2ccccc2)C1)[C@@H]1CCCCN1c1nc2ccc(Br)cc2o1 [Example 15, (2S)-N^2-[(3S)-1-Benzylpyrrolidin-3-yl]-1-(6-bromo-1,3-benzoxazol-2-yl)-2-piperidinecarboxamide]
5 | < 1.2 | – | O=C(N[C@H]1CCN(Cc2ccccc2)C1)C1CCCCN1c1nc2ccccc2[nH]1 (stereo partly shown) [Example 41]
6 | < 1.2 | – | O=C(N[C@H]1CCN(Cc2cccnc2)C1)[C@@H]1CCCCN1c1nc2ccccc2o1 [Example 7, (2S)-1-(1,3-Benzoxazol-2-yl)-N^2-[(3S)-1-(3-pyridinylmethyl)pyrrolidin-3-yl]-2-piperidinecarboxamide]
7 | < 1.2 | – | O=C(N[C@H]1CCN(Cc2ccncc2)C1)[C@@H]1CCCCN1c1nc2ccccc2o1 [Example 8, (2S)-1-(1,3-Benzoxazol-2-yl)-N^2-[(3S)-1-(4-pyridinylmethyl)pyrrolidin-3-yl]-2-piperidinecarboxamide]
8 | < 1.2 | – | O=C(N[C@H]1CCN(C(=O)c2cc(Cl)nc3ccccc23)C1)[C@@H]1CCCCN1c1nc2ccccc2o1 [Example 26, (2S)-N^2-{(3S)-1-[2-Chloroquinolin-4-ylcarbonyl]pyrrolidin-3-yl}-1-(1,3-benzoxazol-2-yl)-2-piperidinecarboxamide]
9 | < 1.2 | – | O=C(N[C@H]1CCN(Cc2ccccn2)C1)[C@@H]1CCCCN1c1nc2ccccc2o1 [Example 6, (2S)-1-(1,3-Benzoxazol-2-yl)-N^2-[(3S)-1-(2-pyridinylmethyl)pyrrolidin-3-yl]-2-piperidinecarboxamide]
10 | < 1.2 | – | O=C(NC1CCCN(Cc2ccccc2)C1)[C@@H]1CCCCN1c1nc2ccccc2o1 (stereo partly drawn) [Example 30, (2S)-1-(1,3-Benzoxazol-2-yl)-N^2-(1-benzyl-3-piperidinyl)-2-piperidinecarboxamide]
11 | < 1.2 | – | O=C(N[C@H]1CCN(C(=O)c2ccc3cn[nH]c3c2)C1)[C@@H]1CCCCN1c1nc2ccccc2o1 [Example 27, (2S)-N^2-{(3S)-1-[1H-benzpyrazol-6-ylcarbonyl]pyrrolidin-3-yl}-1-(1,3-benzoxazol-2-yl)-2-piperidinecarboxamide]
12 | < 1.2 | – | NC(=O)c1cccc(CN2CC[C@H](NC(=O)[C@@H]3CCCCN3c3nc4ccccc4o3)C2)c1 [Example 13a, (2S)-N^2-1-{(3S)-1-[3-(Aminocarbonyl)phenylmethyl]pyrrolidin-3-yl}-1-(1,3-benzoxazol-2-yl)-2-piperidinecarboxamide]
13 | < 1.2 | – | O=C(N[C@H]1CN[C@H](COCc2ccccc2)C1)[C@@H]1CCCCN1c1nc2ccccc2o1 [Example 35, (2S)-1-(1,3-Benzoxazol-2-yl)-N^2-(3R,5S)-5-[(benzyloxy)methyl]pyrrolidin-3-yl-2-piperidinecarboxamide hydrochloride]
14 | < 1.2 | 2.79 | O=C(N[C@H]1CCN(Cc2ccccc2)C1)[C@@H]1CCCCN1c1nc2ccccc2o1 [Example 2, (2S)-1-(1,3-Benzoxazol-2-yl)-N^2-[(3S)-1-benzylpyrrolidin-3-yl]-2-piperidinecarboxamide]
15 | < 1.2 | – | COc1ccc2nc(-c3ccccc3)cc(C(=O)N3CC[C@H](NC(=O)[C@@H]4CCCCN4c4nc5ccccc5o4)C3)c2c1 [Example 24, (2S)-N^2-{(3S)-1-[6-Methoxy-2-phenylquinolin-4-ylcarbonyl]pyrrolidin-3-yl}-1-(1,3-benzoxazol-2-yl)-2-piperidinecarboxamide]
16 | < 1.2 | – | O=C(N[C@H]1CCN(Cc2ccnc3ccccc23)C1)[C@@H]1CCCCN1c1nc2ccccc2o1 [Example 17]
17 | < 1.2 | – | O=C(N[C@H]1CCN(C(=O)c2cc(N3CCCCC3)nc3ccccc23)C1)[C@@H]1CCCCN1c1nc2ccccc2o1 [Example 25, (2S)-N^2-{(3S)-1-[2-Piperidinoquinolin-4-ylcarbonyl]pyrrolidin-3-yl}-1-(1,3-benzoxazol-2-yl)-2-piperidinecarboxamide]
18 | < 1.2 | – | O=C(N[C@H]1CCN(Cc2cnc3ccccc3c2)C1)[C@@H]1CCCCN1c1nc2ccccc2o1 [Example 19]
19 | < 1.2 | – | O=C(N[C@H]1CCN(C(=O)c2cc(-c3ccccc3)nc3ccccc23)C1)[C@@H]1CCCCN1c1nc2ccccc2o1 [Example 22, (2S)-N^2-{(3S)-1-[2-Phenylquinolin-4-ylcarbonyl]pyrrolidin-3-yl}-1-(1,3-benzoxazol-2-yl)-2-piperidinecarboxamide]
20 | < 1.2 | – | O=C(N[C@H]1CCN(Cc2ccc3ccccc3n2)C1)[C@@H]1CCCCN1c1nc2ccccc2o1 [Example 18]
21 | < 1.2 | – | O=C(N[C@H]1CCN(Cc2cc3ccccc3nc2Cl)C1)[C@@H]1CCCCN1c1nc2ccccc2o1 [Example 16]

— US6372736B1, “Heterocyclic compounds as inhibitors of rotamase enzymes” (Pfizer INC, priority 1999, dated 2002)
